SMILES strings stand for the structures. A value given as a limit tells only on which side of the number the result lay.

For assay [1], the target named is T1, Prostaglandin G/H synthase 1 (Ovis aries, UniProt P05979).
T1 sequence (P05979 whole entry): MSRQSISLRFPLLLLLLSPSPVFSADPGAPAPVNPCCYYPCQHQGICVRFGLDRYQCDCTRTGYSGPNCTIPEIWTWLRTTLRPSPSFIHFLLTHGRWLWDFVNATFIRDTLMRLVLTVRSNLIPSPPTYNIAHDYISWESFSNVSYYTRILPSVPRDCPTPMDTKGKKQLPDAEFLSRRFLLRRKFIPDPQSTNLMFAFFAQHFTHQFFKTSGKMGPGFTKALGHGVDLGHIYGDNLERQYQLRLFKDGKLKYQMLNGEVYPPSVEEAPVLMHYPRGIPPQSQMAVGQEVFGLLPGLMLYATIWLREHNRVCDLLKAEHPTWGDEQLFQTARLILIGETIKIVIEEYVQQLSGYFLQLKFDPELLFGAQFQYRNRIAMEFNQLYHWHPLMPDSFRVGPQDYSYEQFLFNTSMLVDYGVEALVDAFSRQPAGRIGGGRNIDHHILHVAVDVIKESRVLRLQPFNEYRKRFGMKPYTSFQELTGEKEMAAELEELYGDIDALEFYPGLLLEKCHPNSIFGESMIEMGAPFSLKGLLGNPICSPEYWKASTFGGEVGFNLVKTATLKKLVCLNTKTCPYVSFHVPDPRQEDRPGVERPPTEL
Kind of assay: Inhibition of ovine COX1 assessed as conversion of [14C]-arachidonic acid to [14C]-prostaglandins preincubated for 17 mins by thin-layer chromatography analysis.

The target of assay [2] is T2, Prostaglandin G/H synthase 2 (Mus musculus, UniProt Q05769).
T2 sequence (Q05769 whole entry): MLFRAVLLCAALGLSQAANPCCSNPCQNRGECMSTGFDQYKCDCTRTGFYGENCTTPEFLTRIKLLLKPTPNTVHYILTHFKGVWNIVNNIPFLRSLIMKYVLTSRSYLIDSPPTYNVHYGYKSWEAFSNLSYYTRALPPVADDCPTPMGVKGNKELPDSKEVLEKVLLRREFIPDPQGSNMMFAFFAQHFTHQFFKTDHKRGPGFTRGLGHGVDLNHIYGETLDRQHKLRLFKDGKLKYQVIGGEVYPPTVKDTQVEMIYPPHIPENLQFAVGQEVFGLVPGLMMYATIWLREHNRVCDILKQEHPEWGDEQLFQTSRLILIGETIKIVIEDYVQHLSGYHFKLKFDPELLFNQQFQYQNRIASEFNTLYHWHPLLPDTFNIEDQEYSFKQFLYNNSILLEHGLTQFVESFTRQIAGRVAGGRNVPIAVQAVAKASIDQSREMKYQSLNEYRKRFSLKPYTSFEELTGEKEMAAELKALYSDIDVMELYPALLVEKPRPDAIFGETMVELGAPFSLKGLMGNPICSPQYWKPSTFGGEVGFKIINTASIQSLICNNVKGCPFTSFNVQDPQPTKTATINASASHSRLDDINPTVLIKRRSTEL
Kind of assay: Inhibition of mouse COX2 assessed as conversion of [14C]-arachidonic acid to [14C]-prostaglandins preincubated for 17 mins by thin-layer chromatography analysis.

What is called IC50 is the concentration that inhibits the measured activity by half. As to `COc1ccc2c(c1)c(CC(=O)OC13CC4CC(CC(C4)C1)C3)c(C)n2C(=O)c1ccc(Cl)cc1`, the IC50 in assay [1] and in assay [2] was greater than 25 µM in each case.
